Tests used:
HepG2 liver cancer cells [1] = assay: Hepatocellular carcinoma killing effect, cell viability assay (Cell Counting Kit-8), 96 h coculture; type: cell-based, human
Protocol: HepG2 cells (5×10^4/[…]/well) were incubated for 24 hours in a 37° C. and 5% CO2 atmosphere, and compounds 7, 15, and 20 (10 μL of a solution brought to 1 μM by dissolution in MilliQ) were then respectively added per 90 μL of the medium and the final concentration was adjusted to 100 nM. At 96 hours after the start of coculture, washing was performed 3 times with the medium component and 10 μL of Cell Counting Kit-8 (Dojindo, Kumamoto, Japan) was added to the cell culture medium; incubation was carried out for 1.5 hours in a 37° C. and 5% CO2 atmosphere; and the viable cell percentage was quantitated by measurement of the absorbance at 450 nm. A 100 nM 5-fluorouracil solution (5-FU) was used as a control agent (FIG. 11).
With reference to the preceding experimental results (FIG. 11), an evaluation of the dose dependence and a determination of the IC50 value were performed for the antitumor effect of the inhibitor 7-bearing, phospholipid-coated fluorescent nanoparticles and the inhibitor 15-bearing, phospholipid-coated fluorescent nanoparticles, which had been confirmed to have a significant inhibitory activity on cancer cell growth versus the 5-FU comparative control agent. […]

[2] = test system: MCF-7 breast cancer cells; assay: Breast cancer cell killing action, viability by MTA/MTT assay (Cell Counting Kit-8); type: cell-based, human; conditions: 100 μM cisplatin, MCF-7, 96 hours, microscopy
Protocol: Quantitation of dead cells by the MTA assay: MCF7 cells (5×10^3/100 μL/well) were incubated for 24 hours in a 37° C. and 5% CO2 atmosphere, and QD-anchored inhibitor 7 (1 μM, 10±L/MilliQ), QD control (1 μM, 10 μL/MilliQ), compound 7 (1 μM, 10 μL/MilliQ), and cisplatin (1 mM, 10 μL/MilliQ) were then respectively added per 90 μL of the medium and the final concentration was adjusted to 100 nM (but 100 μM for the cisplatin). At 96 hours after the start of culture, washing was performed 3 times with the medium component and 10 μL of the cell culture medium was recovered. Cell Counting Kit-8 solution (Dojindo, Kumamoto, Japan) was added; incubation was carried out for 1.5 hours in a 37° C. and 5% CO2 atmosphere; and the viable cell percentage was quantitated by measurement of the absorbance at 450 nm.
Quantitation of dead cells by the MTT assay: MCF-7 cells (5×10^4/[…]/well) were incubated for 24 hours in a 37° C. and 5% CO2 atmosphere, and QD-anchored inhibitor 15 (1 μM, 10 μL/MilliQ) was then respectively added per […] of the medium and the final concentration was adjusted to 100 nM (but 100 μM for the cisplatin). […]

various glycosidases = conditions: free small-molecule compounds; cited from earlier work
HepG2 liver cancer cells [3] = assay: Hepatocellular carcinoma killing action of sorafenib derivative 32, cell viability assay, 48 h coculture; type: cell-based; conditions: Homo sapiens; HepG2, 48 hours, small molecule not carried on nanoparticles
Protocol: At 48 hours after the start of coculture, washing was performed 3 times with the medium component and 10 μL of Cell Counting Kit-8 (Dojindo, Kumamoto, Japan) was added to the cell culture medium; incubation was carried out for 1.5 hours in a 37° C. and 5% CO2 atmosphere; and the cancer cell viability was quantitated by measurement of the absorbance at 450 nm (FIG. 15).

HepG2 cells = conditions: Lin, L. et al., Cancer Res. 2006; cited from earlier work
[4] = test system: cultured cancer cells that express the target kinase group; conditions: cultured cancer cells expressing the target kinase group; cited from earlier work

**Q.** For `O=c1[nH]cc(F)c(=O)[nH]1` [5-FU, 5-fluorouracil], which antitumor activity (HepG2 liver cancer cells [1]; 100 nM, HepG2, coculture for 96 hours) is on record?
**A.** Its antitumor activity is “a significant antitumor activity was not observed”.

**Q.** What about the IC50 (HepG2 liver cancer cells [1]; Homo sapiens, HepG2, 96 hours of coculture, 5 to 100 nM) of the same molecule?
**A.** The IC50 was greater than 100 nM.

**Q.** Which “floating dead cells with altered shapes” value [2] does the source give for `N.N.[Cl][Pt][Cl]` [cisplatin] here?
**A.** Its value is “floating dead cells with altered shapes were observed”.

**Q.** With `CC(=O)CCCC(=O)Nc1ccc(O[C@@H]2OC(CO)[C@@H](O)C(O)C2NC(C)=O)c(C(F)F)c1` (stereo partly drawn) [compound 7] as the molecule, how does the “native IC50 for various glycosidases in vitro” value (shortened to “native IC50”) (various glycosidases) read?
**A.** The value was “on the order of mM”.

**Q.** For `CC(=O)CCCC(=O)Nc1ccc(O[C@@H]2OC(CO)[C@H](O)C(O)C2O)c(C(F)F)c1` (stereo partly drawn) [compound 15], which “native IC50” value (various glycosidases) is on record?
**A.** Its value is “on the order of mM”.

**Q.** With `CC(=O)CCCC(=O)Nc1ccc(O[C@]2(C(=O)O)CC(O)[C@@H](NC(C)=O)C([C@H](O)[C@H](O)CO)O2)c(C(F)F)c1` (stereo partly drawn) [compound 20] as the molecule, how does the “native IC50” value (various glycosidases) read?
**A.** The value was “on the order of mM”.

**Q.** With `CC(=O)CCCCNC(=O)c1cc(Oc2ccc(NC(=O)Nc3ccc(Cl)c(C(F)(F)F)c3)cc2)ccn1` [compound 32] as the molecule, how does the IC50 (HepG2 liver cancer cells [3]) read?
**A.** The IC50 was 2100 nM.

**Q.** Which results are given for `CNC(=O)c1cc(Oc2ccc(NC(=O)Nc3ccc(Cl)c(C(F)(F)F)c3)cc2)ccn1` [sorafenib]?
**A.** IC50 (HepG2 cells): 4.5 µM; IC50 [4]: 4.5 µM

From patent US11007276B2, “Intracellular substance transport system and use thereof” (NATIONAL UNIVERSITY CORPORATION HOKKAIDO UNIVERSITY, priority 2016, dated 2021)
